Laboratory results taken from ChEMBL document CHEMBL1159307, “Theopederins K and L. Highly potent cytotoxic metabolites from a marine sponge Discodermia species” (J Nat Prod, 2002).

Legend:
A549 = test: Cytotoxicity against human A549 cells; type: functional, cell-based
P388 = test: Cytotoxicity against mouse P388 cells; type: functional, cell-based

SMILES | IC50 (A549) [nM] | IC50 (P388) [nM]
C=C1C[C@](OC)([C@H](O)C(=O)N[C@H]2OCO[C@H]3[C@@H]2O[C@H](CC(O)/C=C/C/C=C/C=C/C(=O)O)C(C)(C)[C@@H]3OC)O[C@H](C)[C@@H]1C (stereo partly specified) [THEOPEDERIN L] | 3.2 | 7.3
C=C1C[C@](OC)([C@H](O)C(=O)N[C@H]2OCO[C@H]3[C@@H]2O[C@H](CC(/C=C/C/C=C/C=C/C(=O)OC)OC)C(C)(C)[C@@H]3OC)O[C@H](C)[C@@H]1C (stereo partly specified) [THEOPEDERIN K METHYL ESTER] | 0.8 | 0.3
C=C1C[C@](OC)([C@H](O)C(=O)N[C@H]2OCO[C@H]3[C@@H]2O[C@H](CC(/C=C/C/C=C/C=C/C(=O)O)OC)C(C)(C)[C@@H]3OC)O[C@H](C)[C@@H]1C (stereo partly specified) [THEOPEDERIN K] | 1.5 | 0.1
